Assay results as given in ChEMBL document CHEMBL3301546, “MMV Malaria Box yeast growth screening”.

How the values were obtained:
Type in all cases: functional
Saccharomyces cerevisiae [1] = assay: (§1) MMV: Growth assays were conducted using the prototrophic S. cerevisiae strain JHY222. Each MMV compound (0.1 mM) was tested in rich media containing dextrose as a carbon source (Yeast Extract, Peptone, Dextrose; YPD). The growth rate in the presence of each MMV compound was calculated as follows: (i) the first 10 OD readings were averaged and subtracted from all OD readings of the corresponding curve to set the baseline of the growth curve to zero, and (ii) the area under the curve (AUC) was then calculated as the sum of all OD readings. […] A relative growth value was calculated as follows: AUC(DRUG) - AUC(DMSO)/AUC(DMSO); where AUC(DMSO) represents growth measured in a DMSO control well that was on the same microtiter plate of the drug-treated culture.
Saccharomyces cerevisiae [2] = assay: as §1, with “minimal” for “rich”, “Nitrogen Base,” for “Extract, Peptone,”, “YNBD).” for “YPD).”
Saccharomyces cerevisiae [3] = assay: as §1, with “minimal” for “rich”, “ethanol and glycerol” for “dextrose”, “as” for “as a”, “sources” for “source”, “Nitrogen Base, Ethanol, Glycerol; YNBEG).” for “Extract, Peptone, Dextrose; YPD).”

Compound	Relative Growth (Saccharomyces cerevisiae [1])	Relative Growth (Saccharomyces cerevisiae [2])	Relative Growth (Saccharomyces cerevisiae [3])
COc1ccccc1CNC(=O)CCn1c(=O)[nH]c2ccccc2c1=O	-0.0038	0.0763	0.058
Cc1cc(C=C2SC(=Nc3ccccc3)N(C3CCCC3)C2=O)c(C)n1-c1ccc(Cl)cc1	0.0207	-0.1823	-0.2078
CCCCCCC(O)(c1ccc(F)cc1)C(CN1CCOCC1)c1ccccc1.Cl (centres undefined)	-0.0019	-0.1565	-0.0435
O=C(NC1CCCCC1)C(c1cccs1)N(CCc1ccccc1)C(=O)c1ccco1 (centres undefined)	-0.0109	-0.1735	-0.2518
CCOc1ccc(-n2cc(-c3ccccc3)c3c(SCc4cc(C)ccc4C)ncnc32)cc1	-0.0534	-0.0883	-0.2113
COc1ccc(-c2cc(=O)oc3c4c(ccc23)OCN(Cc2ccc(F)cc2)C4)cc1	0.0536	0.0043	-0.013
CC(C)(C)c1ccc(O)c(CNC2CCCCC2)c1	-0.013	0.1031	-0.0737
O=C(NCc1ccco1)C1CCN(S(=O)(=O)c2ccc(Br)cc2)CC1	-0.1145	-0.0814	-0.2359
CCCCc1ccc(NS(=O)(=O)c2cc3c4c(c2)CCN4C(=O)CC3)cc1	-0.0323	-0.0346	0.0701
O=c1c2c([nH]c3ccccc13)CCCC2	-0.0433	-0.018	-0.326
O=c1nc(C=Cc2ccc(Br)cc2)oc2ccccc12	-0.0705	0.007	0.0189
O=C(Nc1ccccc1O)c1ccc(-c2ccc(Cl)cc2Cl)o1	0.0802	0.0136	-0.098
Oc1ccc(C(=C(Cl)Cl)c2ccc(O)cc2)cc1	0.0294	-0.227	-0.5689
CCOC(=O)c1cnc2ccc(CC)cc2c1O	-0.243	0.0544	-0.0424
CCCc1cc(O)c2c3c(c(=O)oc2c1)CN(C)CC3	-0.0062	-0.0292	-0.0215
Cc1sc(NC(=O)c2ccco2)c(C(c2cccnc2)N2CCC(Cc3ccccc3)CC2)c1C (centres undefined)	-0.0153	0.0125	0.0498
CCCCOC(=O)c1ccc(Nc2cc(C)nc3ccc(OC)cc23)cc1	-0.1158	-0.0919	-0.3112

Compound	Relative Growth (Saccharomyces cerevisiae [1])	Relative Growth (Saccharomyces cerevisiae [2])	Relative Growth (Saccharomyces cerevisiae [3])
COc1ccc(-c2c(C)nn3c(N)c(C#N)cnc23)cc1OC	-0.0311	-0.0079	-0.7097
CC1CN(C(=O)c2sc3ccccc3c2Cl)CC(C)O1 (centres undefined)	-0.0005	0.0985	-0.1107
Cc1cc(Nc2ccc(Cl)cc2)n2nc(C(F)(F)F)nc2n1	0.0103	0.0221	-0.0099
COc1cc(SC)ccc1C(=O)N1CCCC(C)C1 (centres undefined)	-0.0213	0.0716	-0.0182
COc1ccc2c(c1)OC(O)(C(F)(F)C(F)(F)F)CC2=O (centres undefined)	0.0151	0.1423	-0.103
CC1CC(C)CN(C(=O)c2ccc(Cl)cc2Cl)C1 (centres undefined)	0.0159	-0.0098	-0.0083
Cc1nc2ccccc2c(O)c1CC=C(Cl)Cl	-0.1226	-0.0687	-1.0138
O=C(Nc1cccc(-c2nc3ccccc3[nH]2)c1)c1cccc(NC(=O)c2ccco2)c1	-0.1741	-0.0641	-0.4658
O=C(Nc1ccc(N2CCCCC2)c(Cl)c1)c1ccc(Br)o1	-0.0318	-0.1788	-0.1511
CN(C)CCNc1cc(-c2ccccc2)nc2ccccc12	-0.0237	0.1058	0.0694
Cc1ccc(Cn2c(N3CCC(C(=O)NCc4cccs4)CC3)nc3ccccc32)cc1	-0.105	-0.0044	-0.1621
CC(Oc1ccc(NC(=O)c2cccs2)cc1)C(=O)c1ccc(Cl)cc1 (centres undefined)	0.0426	0.1664	0.0184
FC(F)(F)c1cccc(Nc2nc(-c3ccccc3)nc3ncccc23)c1	0.1402	-0.0599	-0.0611
COc1cc(CNCCc2ccc(Cl)cc2)cc(OC)c1O	0.0063	0.0037	-0.0938
CCn1c(CN2CCN(Cc3ccccc3)CC2)nc2cc(NC(=O)c3cccs3)ccc21	-0.0008	-0.4968	-0.226
CC(C)OCc1cc(CN2CCN(c3cccc(Cl)c3)CC2)c(O)c2ncccc12	-1.0115	-0.1654	-0.1438
